Measurements: US20240300932A1, “N-PHENYLIMINE DERIVATIVE AND PREPARATION METHOD AND USE THEREOF” (Guizhou University, priority 2023, published 2024)

Columns and labels:
Assay in all cases: Post-emergence herbicidal activity test (stem and leaf spray, pot culture)
Assay type in all cases: in vivo
Conditions in all cases: 3 weeks after spraying
Trifoliumre pensL. = test system: Trifoliumre pensL.
Procedure: (1) Post-Emergence Stem and Leaf Spray Treatment: The weeds were cultivated in a 180 mm×140 mm plastic nutrient pot by a pot-culture method, placed in an enamel tray, and the plastic nutrient pots were filled with surface soil (⅘ of a depth) collected from a farmland and air-dried and sieved, and a soil humidity was controlled at 20% in the initial stage. Weed seeds with plump and uniform grains were selected, soaked in warm water at 25° C. for 6 h, and germinated in a biochemical incubator (dark) at 28° C. The freshly exposed weed seeds were evenly placed on the soil surface, and then covered with 0.5 cm to 1 cm of soil according to the size of the seeds. The weeds are cultivated in a controlled sunlight greenhouse at 20° C. to 30° C., under natural light, and a relative humidity of 57% to 72%. The soil was loam, including 1.63% of organic matters, with a pH value of 7, 84.3 mg/kg of alkaline nitrogen, 38.5 mg/kg of available phosphorus, and 82.1 mg/kg of available potassium. Each treatment was repeated 2 times, each treatment included 12 pots, and 20 weed seeds were sown in each pot. Pesticide was applied in the test for 1 time in total. When the weeds grew to 1.5- to 2-leaf stage, thinning was conducted, with 10 weeds in each pot, and 30 weeds were kept in each treatment. The cultivated weeds were placed on trays with an area of 0.1 m^2, and stems and leaves were sprayed with a sprayer. After applying a pesticide, the pesticide applied weeds were moved into a greenhouse for routine cultivation. 2 weeks after sowing, the test plants were treated at the 2- to 3-leaf stage: the compounds of the present disclosure for testing were dissolved in acetone separately, and added with Tween 80, an emulsifiable oil of 1.5 liters/ha methyl oleate was added as a synergist, and an obtained mixture was diluted with certain water to a certain concentration solution. The solution was sprayed onto the plants using a spray tower. After spraying, the weeds were cultivated in the greenhouse for 3 weeks, and the experimental effects on the weeds were counted. The effective concentrations of the compounds were 10 g/mu, 5 g/mu, and 2.5 g/mu, the experiment was repeated three times, and an average result was taken.

Amaranthus retroflexus = test system: Amaranthus retroflexus
Procedure: (§1) The weeds were cultivated in a 180 mm×140 mm plastic nutrient pot by a pot-culture method, placed in an enamel tray, and the plastic nutrient pots were filled with surface soil (⅘ of a depth) collected from a farmland and air-dried and sieved, and a soil humidity was controlled at 20% in the initial stage. Weed seeds with plump and uniform grains were selected, soaked in warm water at 25° C. for 6 h, and germinated in a biochemical incubator (dark) at 28° C. The freshly exposed weed seeds were evenly placed on the soil surface, and then covered with 0.5 cm to 1 cm of soil according to the size of the seeds. The weeds are cultivated in a controlled sunlight greenhouse at 20° C. to 30° C., under natural light, and a relative humidity of 57% to 72%. The soil was loam, including 1.63% of organic matters, with a pH value of 7, 84.3 mg/kg of alkaline nitrogen, 38.5 mg/kg of available phosphorus, and 82.1 mg/kg of available potassium.
(§2) Each treatment was repeated 2 times, each treatment included 12 pots, and 20 weed seeds were sown in each pot. Pesticide was applied in the test for 1 time in total. When the weeds grew to 1.5- to 2-leaf stage, thinning was conducted, with 10 weeds in each pot, and 30 weeds were kept in each treatment.
(§3) The cultivated weeds were placed on trays with an area of 0.1 m^2, and stems and leaves were sprayed with a sprayer. After applying a pesticide, the pesticide applied weeds were moved into a greenhouse for routine cultivation.
(§4) 2 weeks after sowing, the test plants were treated at the 2- to 3-leaf stage: the compounds of the present disclosure for testing were dissolved in acetone separately, and added with Tween 80, an emulsifiable oil of 1.5 liters/ha methyl oleate was added as a synergist, and an obtained mixture was diluted with certain water to a certain concentration solution. The solution was sprayed onto the plants using a spray tower. After spraying, the weeds were cultivated in the greenhouse for 3 weeks, and the experimental effects on the weeds were counted. The effective concentrations of the compounds were 10 g/mu, 5 g/mu, and 2.5 g/mu, the experiment was repeated three times, and an average result was taken.
(§5) The activity level criteria for plant destruction (i.e. growth control rate) are as follows: • Grade 5: the growth control rate is greater than or equal to 85%; • Grade 4: the growth control rate is greater than or equal to 60% and less than 85%; • Grade 3: the growth control rate is greater than or equal to 40% and less than 60%; • Grade 2: the growth control rate is greater than or equal to 20% and less than 40%; • Grade 1: the growth control rate is greater than or equal to 5% and less than 20%; and • Grade 0: the growth control rate is less than 5%.
(§6) The growth control rate is a fresh weight control rate.

Portulaca oleracea = test system: Portulaca oleracea
Procedure: as §1, §2, §3, §4, §5, §6

Echinochloa crusgalli = test system: Echinochloa crusgalli
Procedure: as §1, §2, §3, §4, §5, §6

Abutilon theophrasti = test system: Abutilon theophrasti
Procedure: as §1, §2, §3, §4, §5, §6

Setaria viridis = test system: Setaria viridis
Procedure: as §1, §2, §3, §4, §5, §6

Structure (SMILES) | Post-emergence herbicidal activity, Trifoliumre pensL. (grade) (Trifoliumre pensL.; dosage 2.5 g/mu) | Post-emergence herbicidal activity, Trifoliumre pensL. (grade) (Trifoliumre pensL.; dosage 5 g/mu) | Post-emergence herbicidal activity, Trifoliumre pensL. (grade) (Trifoliumre pensL.; dosage 10 g/mu) | Post-emergence herbicidal activity, A. retroflexus (grade) (Amaranthus retroflexus; dosage 2.5 g/mu) | Post-emergence herbicidal activity, A. retroflexus (grade) (Amaranthus retroflexus; dosage 5 g/mu) | Post-emergence herbicidal activity, A. retroflexus (grade) (Amaranthus retroflexus; dosage 10 g/mu) | Post-emergence herbicidal activity, P. oleracea (grade) (Portulaca oleracea; dosage 2.5 g/mu) | Post-emergence herbicidal activity, P. oleracea (grade) (Portulaca oleracea; dosage 5 g/mu) | Post-emergence herbicidal activity, P. oleracea (grade) (Portulaca oleracea; dosage 10 g/mu) | Post-emergence herbicidal activity, E. crusgalli (grade) (Echinochloa crusgalli; dosage 2.5 g/mu) | Post-emergence herbicidal activity, E. crusgalli (grade) (Echinochloa crusgalli; dosage 5 g/mu) | Post-emergence herbicidal activity, E. crusgalli (grade) (Echinochloa crusgalli; dosage 10 g/mu) | Post-emergence herbicidal activity, A. theophrasti (grade) (Abutilon theophrasti; dosage 2.5 g/mu) | Post-emergence herbicidal activity, A. theophrasti (grade) (Abutilon theophrasti; dosage 5 g/mu) | Post-emergence herbicidal activity, A. theophrasti (grade) (Abutilon theophrasti; dosage 10 g/mu) | Post-emergence herbicidal activity, S. viridis (grade) (Setaria viridis; dosage 2.5 g/mu) | Post-emergence herbicidal activity, S. viridis (grade) (Setaria viridis; dosage 5 g/mu) | Post-emergence herbicidal activity, S. viridis (grade) (Setaria viridis; dosage 10 g/mu)
O=C1C2=C(CCCC2)C(=O)N1c1cc(OCc2nc(-c3ccc(Cl)cc3)no2)c(Cl)cc1F [Compound A5] | 5 (Grade 5: the growth control rate is greater than or equal to 85%) | 5 (Grade 5: the growth control rate is greater than or equal to 85%) | 5 (Grade 5: the growth control rate is greater than or equal to 85%) | 5 (Grade 5: the growth control rate is greater than or equal to 85%) | 5 (Grade 5: the growth control rate is greater than or equal to 85%) | 5 (Grade 5: the growth control rate is greater than or equal to 85%) | 5 (Grade 5: the growth control rate is greater than or equal to 85%) | 5 (Grade 5: the growth control rate is greater than or equal to 85%) | 5 (Grade 5: the growth control rate is greater than or equal to 85%) | 1 (Grade 1: the growth control rate is greater than or equal to 5% and less than 20%) | 2 (Grade 2: the growth control rate is greater than or equal to 20% and less than 40%) | 3 (Grade 3: the growth control rate is greater than or equal to 40% and less than 60%) | 5 (Grade 5: the growth control rate is greater than or equal to 85%) | 5 (Grade 5: the growth control rate is greater than or equal to 85%) | 5 (Grade 5: the growth control rate is greater than or equal to 85%) | 2 (Grade 2: the growth control rate is greater than or equal to 20% and less than 40%) | 3 (Grade 3: the growth control rate is greater than or equal to 40% and less than 60%) | 4 (Grade 4: the growth control rate is greater than or equal to 60% and less than 85%)
O=C1C2=C(CCCC2)C(=O)N1c1cc(OCc2nc(-c3ccc(F)cc3F)no2)c(Cl)cc1F [Compound A6] | 4 (Grade 4: the growth control rate is greater than or equal to 60% and less than 85%) | 5 (Grade 5: the growth control rate is greater than or equal to 85%) | 5 (Grade 5: the growth control rate is greater than or equal to 85%) | 5 (Grade 5: the growth control rate is greater than or equal to 85%) | 5 (Grade 5: the growth control rate is greater than or equal to 85%) | 5 (Grade 5: the growth control rate is greater than or equal to 85%) | 4 (Grade 4: the growth control rate is greater than or equal to 60% and less than 85%) | 5 (Grade 5: the growth control rate is greater than or equal to 85%) | 5 (Grade 5: the growth control rate is greater than or equal to 85%) | 1 (Grade 1: the growth control rate is greater than or equal to 5% and less than 20%) | 2 (Grade 2: the growth control rate is greater than or equal to 20% and less than 40%) | 3 (Grade 3: the growth control rate is greater than or equal to 40% and less than 60%) | 5 (Grade 5: the growth control rate is greater than or equal to 85%) | 5 (Grade 5: the growth control rate is greater than or equal to 85%) | 5 (Grade 5: the growth control rate is greater than or equal to 85%) | 2 (Grade 2: the growth control rate is greater than or equal to 20% and less than 40%) | 3 (Grade 3: the growth control rate is greater than or equal to 40% and less than 60%) | 4 (Grade 4: the growth control rate is greater than or equal to 60% and less than 85%)
O=C1C2=C(CCCC2)C(=O)N1c1cc(OCc2nc(-c3ccc(Cl)cc3F)no2)c(Cl)cc1F [Compound A7] | 4 (Grade 4: the growth control rate is greater than or equal to 60% and less than 85%) | 5 (Grade 5: the growth control rate is greater than or equal to 85%) | 5 (Grade 5: the growth control rate is greater than or equal to 85%) | 5 (Grade 5: the growth control rate is greater than or equal to 85%) | 5 (Grade 5: the growth control rate is greater than or equal to 85%) | 5 (Grade 5: the growth control rate is greater than or equal to 85%) | 4 (Grade 4: the growth control rate is greater than or equal to 60% and less than 85%) | 5 (Grade 5: the growth control rate is greater than or equal to 85%) | 5 (Grade 5: the growth control rate is greater than or equal to 85%) | 1 (Grade 1: the growth control rate is greater than or equal to 5% and less than 20%) | 2 (Grade 2: the growth control rate is greater than or equal to 20% and less than 40%) | 3 (Grade 3: the growth control rate is greater than or equal to 40% and less than 60%) | 5 (Grade 5: the growth control rate is greater than or equal to 85%) | 5 (Grade 5: the growth control rate is greater than or equal to 85%) | 5 (Grade 5: the growth control rate is greater than or equal to 85%) | 2 (Grade 2: the growth control rate is greater than or equal to 20% and less than 40%) | 3 (Grade 3: the growth control rate is greater than or equal to 40% and less than 60%) | 4 (Grade 4: the growth control rate is greater than or equal to 60% and less than 85%)
